Results published in patent US12618847B2 (Purdue Research Foundation, priority 2020, dated 2026).
“Also recorded” adds a separate entry of the source. Where two headings read alike, the source gives them in different places. *1 amine or outer side, *2 acyl side, *3 side chain or, on linkers, in order; H or OH if unused. Where a SMILES comes first, the peptide text is derived from it. Where no end group is shown, it is not given here. [ ]: non-standard residue; d: D form. The star is where a group is joined. Phe(4-NO2) = N[C@@H](Cc1ccc([N+](=O)[O-])cc1)C(=O)O; Phe(4-Cl) = N[C@@H](Cc1ccc(Cl)cc1)C(=O)O; 2Thi = N[C@@H](Cc1cccs1)C(=O)O; AMC = Cc1cc(=O)oc2cc(N*)ccc12; Suc = O=C(CCC(=O)[*:2])[*:1]; Nva = CCC[C@H](N)C(=O)O; Cbz = O=C(OCc1ccccc1)*

Legend:
[1] = tested on: 20S CP; details: cited from earlier work
[2] = Human serum stability of library peptides by LC/MS; format: in vitro ADME; details: 20S CP one hour vs 10% human serum 10 min
From the text: This is supported by when we first optimized conditions for treating the peptides with human serum using Tyr-containing peptide.
Specifically, these were the four Phe derivatives tested. […] Because we were interested in the effects of unnatural amino acids in increasing the specificity of our 20S CP recognition sequence, we moved forward with Phe(4-Cl) and Phe(4-NO2) as Tyr substitutes in our probe structure to create TAS2 and TAS3, respectively (FIG. 1B).

[3] = target: T1, 20S CP (Homo sapiens, UniProt P20618+P28074); experiment: LC/MS assay of peptide library as 20S CP substrates; format: biochemical; details: 12 μM peptide, 9 nM 20S CP, 37° C., one hour
Protocol: To evaluate this set of peptides as potential 20S CP substrates, we applied a similar LC/MS-based assay to that used to discover the immunoproteasome probe. Briefly, the peptides were dissolved in DMSO at a stock concentration of 600 μM. The peptides were then diluted in 50 mM tris buffer, pH 7.4, in a 96-well plate for a final assay concentration of 12 μM in two sets of triplicates. One set of triplicates served as a negative control, incubated in tris buffer alone. For analysis, this would correspond to the ionization intensity of completely intact samples, which can then be compared to the amount of intact peptide remaining in 20S CP-treated samples. To the other triplicate was added 20S CP to a final concentration of 9 nM. All samples were incubated at 37° C. for one hour before an equal volume of acetonitrile was added to halt degradation by denaturing the 20S CP. Samples were dried, resuspended in 50/50 water/acetonitrile with 0.1% formic acid and analyzed by LC/MS (example spectra can be found in Supporting Information Appendix B).
For each peptide, the mass of the full (uncleaved) structure was extracted (extracted ion chromatogram, EIC) from each sample and this peak was integrated to obtain the peak area. The peak areas for the negative control samples of individual structures were averaged and set to 1. Peak areas for 20S CP-treated samples were then scaled to the average for the untreated sample and the triplicates averaged to obtain a value for the fraction of full peptide remaining (FIG. 4). To confirm that the peptide was being cleaved at the desired position, the mass of the corresponding 4mer-peptide cleavage product was found in each 20S CP-treated sample with significant decrease in full peptide observed.

[4] = tested on: A549 cells; experiment: Probe cleavage in live A549 cells with or without MG-132 pretreatment; format: cell-based; details: MG-132 10 μM pre-incubated one hour, each TAS probe at 10 μM
Protocol: We next sought to determine if the TAS probes would be suitable for cell-based assays. To accomplish this, A549 cells were plated at a density of 5,000 cells/well in a black 96 well plate with a black bottom. After allowing the cells to adhere to the plate, the samples were washed with PBS three times then dosed with 10 μM of each probe in modified KRBH buffer. The change in fluorescence was recorded on a microplate reader for 90 min. After allowing the signal to equilibrate for […], each sample was set to zero and the future time points were scaled accordingly. As was done with the biochemical data, a linear regression was fit to each set of data. From the slope, it is observed that the rate for TAS2 was the highest. To determine the in-cell selectivity, a set of samples pretreated with MG-132 (10 μM), a proteasome inhibitor, was included for each probe. These samples were pre-incubated with MG-132 in cell culture media for one hour before washing with PBS and dosing with each probe in modified KRBH buffer. […] To ensure this decrease was not a consequence of cell death, cells were treated in the same way and analyzed using Cell-Titer Glo.

[5] = tested on: MM.1R; experiment: Cell viability by Cell-Titer Glo; format: cell-based; details: 48 hours
Protocol: (§1) We also sought to correlate this proteasome activity trend with susceptibility to a proteasome inhibitor by determining the IC50 values of MG-132 with these six cells. Cells were dosed for 48 hours with increase concentrations of MG-132 then analyzed using Cell-Titer Glo to determine cell viability. […] Considering this, we still believe comparing cell lines for proteasome activity based on fluorescence with TAS2 would still provide insight to the relative dependency of various cancer cell lines on proteasome activity.

[6] = tested on: A498, SK-MEL-2, MEL-92.1, SH-SY5Y and HEK293T cell lines; experiment: Cell viability by Cell-Titer Glo; format: cell-based; details: remaining cell lines, 48 hours
Protocol: as §1

[7] = target: T1, 20S CP; experiment: Fluorescence hydrolysis of probes by purified 20S CP (plate reader); format: biochemical
Protocol: The peptide recognition sequence used was based on the commercially available 4-mer AMC probe (FIG. 1A), specifically Leu-Leu-Val-Tyr (SEQ ID NO: 1), to generate TAS1 (FIG. 1B). To determine if TAS1 had any enhanced sensitivity, the two probes were compared under the same conditions with purified 20S CP. Briefly, the probes were incubated in triplicate at 10 and 30 μM with 9 nM […] at 37° C. The change in fluorescence was monitored for two hours and the endpoint values were averaged and graphed for comparison (FIG. 1C). Because the two fluorophores have different excitation and emission wavelengths, the two experiments were performed separately but using the same conditions for the plate reader (i.e. gain, number of flashes, settling time, etc.). […] Since, unlike Suc-LLVY-AMC (SEQ ID NO: 1), TAS1 has the potential to have more than one cleavage site which could result in an increase in fluorescence (on either side of Rh110), we confirmed that the increase in signal is only from the recognition and cleavage of the peptide at the Tyr moiety by analyzing the 30 μM TAS1 samples by LC/MS (FIG. 2).
With these new peptide sequences in hand, we returned to incorporating the Rh110-peptoid moiety and to compare the cleavage of TAS1-3 with the 20S CP. We incubated all three probes at various concentrations with 9 nM 20S CP and monitored the change in fluorescence using a microplate reader. […] In order to compare the three probes, we fit a linear regression for the points from 10-60 min for 30 μM of each probe to obtain a rate for the change in fluorescence (Table 1). Of the three, TAS1 was hydrolyzed the quickest, although the slope for TAS2 was similar. […] To confirm that the change in fluorescence was due to amide bond cleavage at the expected site on the peptide, we analyzed the samples at a concentration of 30 μM by LC/MS (FIG. 3).

[8] = tested on: human purified 20S proteasome; experiment: Detection of small molecule stimulators with TAS probes using purified 20S proteasome (FIG. 7B-7D); format: biochemical; details: detected with TAS1 and TAS3
Protocol: FIG. 7B-7D show the analysis of TAS probes (TAS-1-B, TAS-2-C, TAS-3-D) for their ability to detect different small molecule stimulators using human purified 20S proteasome.
All three probes were able to detect stimulation is determined by an increase in the % activity over 60 min as compared to the DMSO control. Both TAS1 and TAS3 can differentiate between weak (TRC-1 and TCM-1) and strong proteasome stimulators (MK-886).

[9] = tested on: T2, proteasome; experiment: Proteasome stimulation in cells monitored with TAS probes; format: cell-based
T2 construct: endogenous in cells; host or cells: A549 (inferred; the stimulator paragraph says only 'cells')
From the text: In addition to determining if our probes are capable of detecting a decrease in proteasome activity, we were also interested in monitoring molecules which have shown to increase proteasome activity, also known as proteasome stimulators. […] However, this method requires transfection of the MT-fusion protein into cells and analysis by Western blot. Given the promising results with MG-132, we expected our probes to be sensitive enough to detect proteasome stimulation in a similar manner. Using three molecules reported to have various degrees of stimulation, cells were dosed for one hour before washing and adding in each probe. The samples were then monitored for changes in fluorescence and analyzed in the same way as the MG-132 experiment.
Previously proteasome stimulators had been discovered using a biochemical assay that required purified proteasome. As with all enzyme purifications, the batch to batch activity can vary greatly, leading to inconsistent results. […]
Using three different stimulating small molecules previously validated using other methods, we found both TAS1 and TAS3 would be suitable to use in such an assay. […] An increase in proteasome activity can be detected after as little as 15 min of incubation time, which can help to increase throughput during a screening campaign. […]

[10] = tested on: 20S CP; experiment: purified 20S CP; details: 37° C., up to two hours
[11] = 10% v/v human serum in tris buffer; details: up to 60 min

Suc-LLVY-{AMC}
cleaved bond [1]: Tyr-AMC

Phe: library peptide with Phe in S1 position replacing Tyr, Ala-Ala dipeptide (LLVFAA)
Cleavage by 20S CP compared to human serum [2]: greater than three-times favored cleavage by the 20S CP

CNCC(=O)O [Sar]
Cleavage by 20S CP compared to human serum [2]: no significant difference in cleavage; also recorded: near equal cleavage by both
Cleavage of peptide by 20S CP (in words) [3]: significantly cleaved

CC(C)C[C@@H](C=O)NC(=O)[C@H](CC(C)C)NC(=O)[C@H](CC(C)C)NC(=O)OCc1ccccc1 [MG-132] (Cbz-Leu-Leu-Leu-aldehyde)
Decrease of slope of probe cleavage [4]: ≥ 50%
IC50 [5]: 264 nM
IC50 (cell viability) [6]: higher than that of MM.1R

N[C@@H](CCO)C(=O)O [Hse]
Peptide cleaved by 20S CP [3]: ~50%

Phe(4-Cl): library peptide with Phe(4-Cl) in S1 position replacing Tyr, Ala-Ala dipeptide (LLV[Phe(4-Cl)]AA-NH2; N-terminus assumed; SMILES CC(C)C[C@H](NC(=O)[C@@H](N)CC(C)C)C(=O)N[C@H](C(=O)N[C@@H](Cc1ccc(Cl)cc1)C(=O)N[C@@H](C)C(=O)N[C@@H](C)C(N)=O)C(C)C)
Cleavage by 20S CP compared to human serum [2]: greater than three-times favored cleavage by the 20S CP

Nva: library peptide with norvaline in S1 position replacing Tyr, Ala-Ala dipeptide (LLV[Nva]AA-NH2; N-terminus assumed; SMILES CCC[C@H](NC(=O)[C@@H](NC(=O)[C@H](CC(C)C)NC(=O)[C@@H](N)CC(C)C)C(C)C)C(=O)N[C@@H](C)C(=O)N[C@@H](C)C(N)=O)
Peptide cleaved by 20S CP [3]: ~50%

TAS3: Rh110-based peptide/peptoid hybrid probe with Phe(4-NO2) as Tyr substitute (LLV[Phe(4-NO2)]; also: Rh110-based probe, place not given here, peptide/peptoid hybrid)
Rate of Hydrolysis ([7]; 30 μM probe, 9 nM purified 20S CP, linear regression 10-60 min): 28.1 ΔRFU/min
Cleavage products after incubation with 20S CP (LC/MS) ([7]; 30 μM probe, LC/MS): only produced the expected cleavage products
Background fluorescence level ([7]; purified 20S CP assay): considerably higher level of background

Thi: library peptide with thienylalanine in S1 position replacing Tyr, Ala-Ala dipeptide (LLV[2Thi]AA-NH2; N-terminus assumed; SMILES CC(C)C[C@H](NC(=O)[C@@H](N)CC(C)C)C(=O)N[C@H](C(=O)N[C@@H](Cc1cccs1)C(=O)N[C@@H](C)C(=O)N[C@@H](C)C(N)=O)C(C)C)
Cleavage by 20S CP compared to human serum [2]: near equal cleavage by both
Cleavage of peptide by 20S CP (in words) [3]: highest amount of cleavage

D-Phe: library peptide with D-Phe moiety in S1 position replacing Tyr, Ala-Ala dipeptide (LLV[dF]AA-NH2; N-terminus assumed; SMILES CC(C)C[C@H](NC(=O)[C@@H](N)CC(C)C)C(=O)N[C@H](C(=O)N[C@H](Cc1ccccc1)C(=O)N[C@@H](C)C(=O)N[C@@H](C)C(N)=O)C(C)C)
Cleavage of peptide by 20S CP (in words) [3]: did not accept

CC(C)c1ccc2c(c1)c(SC(C)(C)C)c(CC(C)(C)C(=O)O)n2Cc1ccc(Cl)cc1 [MK-886]
Proteasome stimulator strength (% activity over 60 min vs DMSO) [8]: strong
Increase in proteasome activity vs DMSO ([9]; probe TAS1, cells dosed one hour): greater than 3 fold
Increase in proteasome activity vs DMSO ([9]; probe TAS3, cells dosed one hour): greater than 3 fold

CCCC[C@H](N)C(=O)O [norleucine]
Peptide cleaved by 20S CP [3]: ~50%

Phe(4-NO2): library peptide with Phe(4-NO2) in S1 position replacing Tyr, Ala-Ala dipeptide (LLV[Phe(4-NO2)]AA-NH2; N-terminus assumed; SMILES CC(C)C[C@H](NC(=O)[C@@H](N)CC(C)C)C(=O)N[C@H](C(=O)N[C@@H](Cc1ccc([N+](=O)[O-])cc1)C(=O)N[C@@H](C)C(=O)N[C@@H](C)C(N)=O)C(C)C)
Cleavage by 20S CP compared to human serum [2]: greater than three-times favored cleavage by the 20S CP

Leu-Leu-Val-Tyr
cleaved bond [10]: Tyr-Rh110
not cleaved [10]: only new peaks formed were the expected cleavage products
cleaved bond [11]: Leu-Leu, first_seen, 30 min; also recorded: Leu-Val, 60 min
not cleaved [11]: no productive cleavage for either 30 or 60 min
